In PubChem BioAssay (NCI) one finds GI50 and TGI data, which are given here for nine compounds.

Assay in all cases: DTP human tumour cell line panel, 48 h
Experiment [1] concerns CCRF-CEM leukemia.
The subject of experiment [2] is HL-60(TB) leukemia.
For experiment [3], the system named is KM12 colon.
Experiment [4] deals with M14 melanoma.
In experiment [5] the test system is MCF7 breast.
For experiment [6], the system named is NCI-H23 lung.
Experiment [7] concerns NCI-H522 lung.
Experiment [8] deals with OVCAR-5 ovarian.
Experiment [9] relates to OVCAR-8 ovarian.
For experiment [10], the system named is U251 CNS.

Each structure is given as a SMILES string.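 A five-concentration, 48-hour dose response in 96-well plates underlies each endpoint, interpolated linearly between surrounding concentrations. GI50 is the concentration that inhibits growth by half. Definition used: TGI = concentration required for complete inhibition of growth.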

As a reminder, the GI50 is the concentration at which growth is held to half of that of the control. The TGI is the concentration at which net growth stops. High values mean less potent growth arrest, low ones more potent growth arrest.

As for `CCSc1nc(NC(C)c2ccccc2)c2cnn(CO)c2n1` (stereo not given), the GI50 in experiment [1] is more than 100 µM; in experiment [2] it was more than 100 µM; in experiment [3], 42.1 µM; in [4], more than 100 µM; in experiment [5] it was 52.8 µM; in [6], 18.4 µM. For the same compound, the GI50 in [7] was 14.7 µM; in [8], more than 100 µM; in experiment [9] it was 99.3 µM; in experiment [10] it was 74.8 µM. The total growth inhibition concentration (TGI) in [1], in [2], in [3], in experiment [4], in experiment [5] and in experiment [6] was more than 100 µM each time. Moreover, the total growth inhibition concentration (TGI) in experiment [7], in experiment [8], in experiment [9] and in [10] was more than 100 µM in each case.

For `O=C(O)c1ccc(NCc2nc3ccccc3[nH]2)cc1`, the GI50 in [1] was more than 100 µM; in experiment [2], more than 100 µM; in [3], more than 100 µM; in experiment [4], more than 100 µM; in experiment [5], 99.9 µM; in experiment [6], more than 100 µM. The GI50 in [7], in [8], in experiment [9] and in experiment [10] was more than 100 µM each time. Also, the concentration for total growth inhibition (TGI) in experiment [1], in experiment [2], in [3], in [4], in experiment [5] and in [6] was more than 100 µM in each case. In addition, the total growth inhibition concentration (TGI) in experiment [7], in [8], in experiment [9] and in [10] was more than 100 µM in each case.

Consider `Cc1ccc(/C=C(/C#N)n2nnc3ncccc32)cc1`, for which the GI50 in experiment [1] is 3.08 µM; in experiment [2], 2.99 µM; in [3] it was 2.11 µM; in experiment [4], 2.89 µM; in experiment [5], 2.37 µM; in experiment [6], 3.09 µM. The 50% growth inhibitory concentration (GI50) in [7] is 0.255 µM; in experiment [8], 2.49 µM; in experiment [9], 3.16 µM; in experiment [10] it was 3.41 µM. The TGI in experiment [1] was more than 100 µM; in [2], 9.92 µM; in experiment [3], 14.9 µM; in [4], 17.7 µM; in experiment [5] it was 18.1 µM; in experiment [6], 17.9 µM. Further, the TGI was 0.878 µM in experiment [7], 10.1 µM in experiment [8], more than 100 µM in experiment [9] and 14.1 µM in [10].

On to `O=C(/C=C/c1ccco1)Nc1ncc(Cc2cccc(C(F)(F)F)c2)s1`, for which the GI50 is 0.0682 µM in experiment [1]; 0.0604 µM in [2]; 0.0432 µM in experiment [3]; 0.0572 µM in experiment [4]; 0.0367 µM in experiment [5]; 0.208 µM in experiment [6]. The 50% growth inhibitory concentration (GI50) in experiment [7] was 0.0321 µM; in [8], 0.353 µM; in experiment [9], 0.138 µM; in [10], 0.0532 µM. The TGI was more than 47.8 µM in experiment [1]; 0.19 µM in experiment [2]; more than 31.8 µM in experiment [3]; 3.18 µM in experiment [4]; more than 56.2 µM in experiment [5]; more than 39.7 µM in experiment [6]. For the same compound, the TGI in experiment [7] is 0.328 µM; in experiment [8], 11.8 µM; in experiment [9], more than 37.7 µM; in experiment [10], 2.11 µM.

`O=C(NCCCl)NCCN1c2nc3ccccc3cc2Sc2cc3ccccc3nc21`: the GI50 in experiment [1] was 0.3 µM; in experiment [2], 1.71 µM; in experiment [3], 2.67 µM; in experiment [4], 1.77 µM; in experiment [5], 1.02 µM; in [6], 1.43 µM. Besides, the GI50 in experiment [7] is 4.23 µM; in experiment [8] it was 4.24 µM; in experiment [9], 3.03 µM; in experiment [10], 1.93 µM. Besides, the TGI in [1] was 3.62 µM; in experiment [2], 5.12 µM; in experiment [3] it was 16.1 µM; in [4], 6.73 µM; in experiment [5], 2.59 µM; in [6] it was more than 45.6 µM. Moreover, the concentration for total growth inhibition (TGI) in experiment [7] was more than 53.3 µM; in experiment [8], more than 44.5 µM; in experiment [9] it was 20.8 µM; in experiment [10], 12.3 µM.

`NC(CP(=O)(O)O)C(=O)O` (stereo not given): the TGI in experiment [1], in experiment [2], in [3], in experiment [4], in experiment [5] and in experiment [6] was more than 100 µM each time. Besides, the TGI in experiment [7], in [8], in [9] and in [10] was more than 100 µM throughout.

On to `CC(=O)OC1CC2C(C)(C)CCC[C@]2(C)C2=C1C(O)=C(C(C)C)C(=O)C2=O` (stereo not given in full), for which the GI50 in experiment [1] is 1.12 µM; in experiment [2], 0.613 µM; in experiment [3], 0.644 µM; in experiment [4], 0.442 µM; in [5] it was 1.1 µM; in experiment [6] it was 0.704 µM. The GI50 was 1.65 µM in [7], 1.44 µM in experiment [8], 2.14 µM in [9] and 0.666 µM in experiment [10]. Besides, the TGI in experiment [1] was determined as 7.03 µM; in [2], 4.23 µM; in experiment [3] it was 2.15 µM; in [4], 1.83 µM; in [5], 3.75 µM; in [6], 2.98 µM. Moreover, the TGI was 3.42 µM in experiment [7], 3.79 µM in [8], 14.5 µM in experiment [9] and 21.7 µM in experiment [10].

For `C[C@]12CCCN1CC1=NNC(=O)c3cc(F)cc4[nH]c2c1c34`, the GI50 in [1] is 22.5 µM; in [2] it was 25 µM; in [3] it was 9.6 µM; in experiment [4], 18.5 µM; in experiment [5], 11.6 µM; in experiment [6], 16.1 µM. For the same compound, the GI50 is 21.9 µM in experiment [7], 20.2 µM in experiment [8], 19.5 µM in experiment [9] and 14.1 µM in experiment [10]. For the same compound, the TGI in [1] is 81 µM; in experiment [2], 66.9 µM; in experiment [3] it was 30.3 µM; in [4], 59.6 µM; in experiment [5], more than 100 µM; in [6], 54.6 µM. Moreover, the TGI was 63.6 µM in [7], more than 100 µM in [8], more than 100 µM in experiment [9] and more than 100 µM in experiment [10].

For the compound `CCOC(=O)C1=C(C)NC(C)=C(C(=O)OCCNC(=O)c2ccc(N=[N+]=[N-])cc2)C1c1ccccc1C(F)(F)F` (stereo not given), the TGI came to 21.5 µM in [1]; 14.7 µM in experiment [2]; 21.5 µM in [3]; 21.5 µM in experiment [4]; 12.2 µM in [5]; 21.5 µM in experiment [6]. Further, the TGI in experiment [7] turned out to be 19.3 µM; in experiment [8], 21.5 µM; in experiment [9], 21.5 µM; in experiment [10] it was 21.5 µM.
